From patent US12516016B2, “GPX4 inhibitors, pharmaceutical compositions thereof, and their use for treating GPX4-mediated diseases” (EUBULUS BIOTHERAPEUTICS (HONG KONG) LIMITED, priority 2020, dated 2026)

These compounds were tested on hepatocellular carcinoma cell line Hub-7 (assay: Cell proliferation assay (CELL-TITER GLO cell viability)). Conditions: 24 h, Hub-7 cells, 24 h incubation, read-out: Inhibition of Cell Proliferation EC50.
Type: cell-based
Procedure: The activity of a test compound was determined in a cell proliferation assay using the hepatocellular carcinoma cell line […]. Cells (4,000 cells per well) were seeded in a 96-well tissue culture plate. After incubated overnight, a test compound was added at predetermined concentrations, starting with 10 μM and followed by 3-fold serial dilution. After the cells were incubated for 24 h, cell viability was determined using a CELL-TITER GLO® assay. The CELL-TITER GLO® reagent (50 μL) was added to each well and the luminescence was measured by a multimode microplate reader after a brief period of shaking. EC50 values were determined for the test compound. The results are summarized in Table 1, wherein A represents a value no greater than 100 nM, B represents a value greater than 100 nM but no greater than 500 nM, C represents a value greater than 500 nM but no greater than 2 μM, D represents a value greater than 2 μM but no greater than 10 μM; and E represents a value greater than 10 μM.

| Structure (SMILES) | EC50 [µM] |
| --- | --- |
| C#CC(=O)N(c1ccc(N)cc1)C(C(=O)NC(C)(C)C)c1ccc(N)cc1 (stereo not shown) [A9, N-(4-Aminophenyl)-N-(1-(4-aminophenyl)-2-(tert-butylamino)-2-oxoethyl)-propiolamide] | 2 to 10 |
| C#CC(=O)N(c1cccc(Cl)c1)C1(C(=O)NCC(=O)NCc2ccccc2Cl)CCOCC1 [A187, N-(2-((2-Chlorobenzyl)amino)-2-oxoethyl)-4-(N-(3-chlorophenyl)propiolamido)-tetrahydro-2H-pyran-4-carboxamide] | 0.1 to 0.5 |
| C#CC(=O)N(c1cccc(Cl)c1)C(C(=O)NCc1ccccc1)c1ccccc1F (stereo not shown) [A90, N-(2-(Benzylamino)-1-(2-fluorophenyl)-2-oxoethyl)-N-(3-chlorophenyl)-propiolamide] | ≤ 0.1 |
| C#CC(=O)N(c1ccc2c(ccn2C)c1)C1(C(=O)NCc2ccccc2)CCOCC1 [A153, N-Benzyl-4-(N-(1-methyl-1H-indol-5-yl)propiolamido)tetrahydro-2H-pyran-4-carboxamide] | ≤ 0.1 |
| C#CC(=O)N(c1ccc(C#N)cc1)C(C(=O)NCc1ccccc1)c1ccc(N)cc1 (stereo not shown) [A66, N-(1-(4-Aminophenyl)-2-(benzylamino)-2-oxoethyl)-N-(4-cyanophenyl)-propiolamide] | ≤ 0.1 |
| C#CC(=O)N(c1cccc(Cl)c1)C1(C(=O)NCc2ccccc2)CCCC(=O)C1 (stereo not shown) [A172, N-Benzyl-1-(N-(3-chlorophenyl)propiolamido)-3-oxocyclohexanecarboxamide] | ≤ 0.1 |
| C#CC(=O)N(c1ccc(O)cc1)C(C(=O)NC(C)(C)C)c1ccc(N)cc1 (stereo not shown) [A12, N-(1-(4-Aminophenyl)-2-(tert-butylamino)-2-oxoethyl)-N-(4-hydroxyphenyl)-propiolamide] | > 10 |
| C#CC(=O)N(Cc1cccc(O)c1)C1(C(=O)NCc2ccccc2)CCOCC1 [A138, N-Benzyl-4-(N-(3-hydroxybenzyl)propiolamido)tetrahydro-2H-pyran-4-carboxamide] | ≤ 0.1 |
| C#CC(=O)N(c1cccc(Cl)c1)C(C(=O)NCc1ccccc1)c1cccs1 (stereo not shown) [A75, N-(2-(Benzylamino)-2-oxo-1-(thiophen-2-yl)ethyl)-N-(3-chlorophenyl)-propiolamide] | ≤ 0.1 |
| C#CC(=O)N(c1cccc(C#N)c1)C(C(=O)NCc1ccccc1)c1ccc(N)cc1 (stereo not shown) [A55, N-(1-(4-Aminophenyl)-2-(benzylamino)-2-oxoethyl)-N-(3-cyanophenyl)-propiolamide] | 0.1 to 0.5 |
| O=C(NCCc1ccccc1)C(c1ccc([N+](=O)[O-])cc1)N(C(=O)CCl)c1cccc(Cl)c1 (stereo not shown) [C5, 2-chloro-N-(3-chlorophenyl)-N-(1-(4-nitrophenyl)-2-oxo-2-(phenethylamino)ethyl)acetamide] | 0.1 to 0.5 |
| C#CC(=O)N(c1cccc(Cl)c1)C1(C(=O)NCC(=O)N2CCCC(O)C2)CCOCC1 (stereo not shown) [A183, 4-(N-(3-Chlorophenyl)propiolamido)-N-(2-(3-hydroxypiperidin-1-yl)-2-oxoethyl)tetrahydro-2H-pyran-4-carboxamide] | 2 to 10 |
| O=C(CCl)N(c1cccc2nsnc12)C1(C(=O)NCc2ccccc2)CCOCC1 [C28, 4-(N-(Benzo[c][1,2,5]thiadiazol-4-yl)-2-chloroacetamido)-N-benzyltetrahydro-2H-pyran-4-carboxamide] | 0.1 to 0.5 |
| C#CC(=O)N(c1cccc(Cl)c1)C(C(=O)NCc1ccccc1)c1cccc(CCO)c1 (stereo not shown) [A95, N-(2-(Benzylamino)-1-(3-(2-hydroxyethyl)phenyl)-2-oxoethyl)-N-(3-chloro-phenyl)propiolamide] | 0.1 to 0.5 |
| C#CC(=O)N(c1cccc2c1OCO2)C(C(=O)NCc1ccccc1)c1ccccc1 (stereo not shown) [A97, N-(Benzo[d][1,3]dioxol-4-yl)-N-(2-(benzylamino)-2-oxo-1-phenylethyl)-propiolamide] | 0.1 to 0.5 |

Same assay, conditions: Hub-7 cells, 24 h incubation, read-out: Inhibition of Cell Proliferation EC50

| Structure (SMILES) | EC50 [µM] |
| --- | --- |
| C#CC(=O)N(c1cccc(Cl)c1)[C@]1(C(=O)NCc2ccccc2)CC[C@@H](O)CC1 [A111, (1R,4R)—N-Benzyl-1-(N-(3-chlorophenyl)propiolamido)-4-hydroxycyclohexane-carboxamide] | 0.1 to 0.5 |
